In patent US20110082130A1 (LIGAND PHARMACEUTICALS, INC., priority 2006, published 2011):

Molecular target: T1, chimeric human H3 receptor (Homo sapiens, UniProt Q9Y5N1)
T1 construct: made in house; host or cells: Sf9 insect cells (baculovirus); P2 membrane preparation
Experiment: Chimeric human H3 receptor GTP binding assay (agonist-stimulated GTP-gamma35S binding, Example 7)
Assay type: biochemical
Settings: Table II "Ki", symbol *; assay of Example 7
Method in brief: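 Sf9 membranes co-expressing chimeric human H3 receptor and heterotrimeric G-protein, 35 μg/tube, in pH 7.4 Tris buffer with 10 μM GDP. Test compounds (10^−10–10^−6 M) competed against 1 μM histamine, […] GTP-gamma35S, 60 min at room temperature. Filter-bound radioactivity counted; IC50 converted to Ki by Cheng-Prusoff. Agonism/inverse agonism tested without histamine (EC50).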

T1 sequence (Q9Y5N1 with tags, fused parts or gaps): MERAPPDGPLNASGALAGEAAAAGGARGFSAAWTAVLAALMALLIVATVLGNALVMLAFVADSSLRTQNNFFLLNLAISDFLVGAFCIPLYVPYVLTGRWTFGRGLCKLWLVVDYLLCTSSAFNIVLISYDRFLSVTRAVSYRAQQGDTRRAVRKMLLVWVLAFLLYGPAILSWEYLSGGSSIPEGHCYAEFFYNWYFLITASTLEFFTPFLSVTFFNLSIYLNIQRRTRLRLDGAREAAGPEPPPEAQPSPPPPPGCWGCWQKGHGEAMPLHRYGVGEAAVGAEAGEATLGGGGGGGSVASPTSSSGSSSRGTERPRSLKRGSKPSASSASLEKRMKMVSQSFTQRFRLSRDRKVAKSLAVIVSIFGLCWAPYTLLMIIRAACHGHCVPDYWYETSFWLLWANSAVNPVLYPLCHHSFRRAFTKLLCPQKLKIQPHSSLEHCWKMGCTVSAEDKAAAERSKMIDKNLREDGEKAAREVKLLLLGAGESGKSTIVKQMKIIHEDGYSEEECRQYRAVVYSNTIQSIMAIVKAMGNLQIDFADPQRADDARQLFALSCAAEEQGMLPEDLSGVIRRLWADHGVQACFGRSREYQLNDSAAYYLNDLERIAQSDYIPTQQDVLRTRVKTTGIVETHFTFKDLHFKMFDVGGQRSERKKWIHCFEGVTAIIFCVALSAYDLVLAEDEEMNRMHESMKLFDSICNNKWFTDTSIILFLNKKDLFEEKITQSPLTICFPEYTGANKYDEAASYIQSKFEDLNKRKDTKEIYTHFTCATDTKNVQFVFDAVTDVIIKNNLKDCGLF

Ki, < 1000 nM:
CC(C)Oc1cccc(-c2ccc3c(c2)CCN(CC(=O)N2CCN(C4CCC4)CC2)C3)c1 [Compound 513, 2-[2-(4-cyclobutylpiperazin-1-yl)-2-oxoethyl]-6-(3-isopropoxyphenyl)-1,2,3,4-tetrahydroisoquinoline]
CCOc1ccc(-c2ccc3c(c2)CCN(CC(=O)N2CCN(C4CCCC4)CC2)C3)cc1 [Compound 529, 2-[2-(4-cyclopentylpiperazin-1-yl)-2-oxoethyl]-6-(4-ethoxyphenyl)-1,2,3,4-tetrahydroisoquinoline]
COC1CCN(c2ccc3c(n2)CCN(CC(=O)N2CCN(C4CCC4)CC2)C3)CC1 [Compound 681, 6-[2-(4-cyclobutylpiperazin-1-yl)-2-oxoethyl]-2-(4-methoxypiperidin-1-yl)-5,6,7,8-tetrahydro-1,6-naphthyridine]
CN(C)Cc1cccc(-c2ccc3c(c2)CCN(CC(=O)N2CCN(C4CCC4)CC2)C3)c1 [Compound 641, 1-(3-{2-[2-(4-cyclobutylpiperazin-1-yl)-2-oxoethyl]-1,2,3,4-tetrahydroisoquinolin-6-yl}phenyl)-N,N-dimethylmethanamine]
CC(C)c1ccc(-c2ccc3c(c2)CCN(CC(=O)N2CCN(C4CCC4)CC2)C3)cn1 [Compound 649, 2-[2-(4-cyclobutylpiperazin-1-yl)-2-oxoethyl]-6-(6-isopropylpyridin-3-yl)-1,2,3,4-tetrahydroisoquinoline]

Same assay, conditions: Table II; "*" = Ki in assay of Example 7 less than 1 micromolar

Ki, < 1000 nM:
COc1ncc(-n2cc3c(n2)CCN(CC(=O)N2CCN(C4CCC4)CC2)C3)cn1 [Compound 256, 5-[2-(4-cyclobutylpiperazin-1-yl)-2-oxoethyl]-2-(2-methoxypyrimidin-5-yl)-4,5,6,7-tetrahydro-2H-pyrazolo[4,3-c]pyridine]
O=C(CN1CCc2[nH]c(=O)ccc2C1)N1CCN(C2CCCCC2)CC1 [Compound 136, 6-[2-(4-cyclohexylpiperazin-1-yl)-2-oxoethyl]-5,6,7,8-tetrahydro-1,6-naphthyridin-2(1H)-one]
O=C(CN1CCc2cc(-c3cncnc3)nnc2C1)N1CCN(C2CCC2)CC1 [Compound 232, 7-[2-(4-cyclobutylpiperazin-1-yl)-2-oxoethyl]-3-pyrimidin-5-yl-5,6,7,8-tetrahydropyrido[3,4-c]pyridazine]
O=C(CN1CCc2nc(-c3cccnc3)ncc2C1)N1CCN(C2CCC2)CC1 [Compound 143, 6-[2-(4-cyclobutylpiperazin-1-yl)-2-oxoethyl]-2-pyridin-3-yl-5,6,7,8-tetrahydropyrido[4,3-d]pyrimidine]

Same assay, conditions: assay of Example 7; "*" in Ki of Table II

Ki, < 1000 nM:
O=C(CN1CCc2cc(-c3ccc4c(c3)OCCO4)ccc2C1)N1CCN(C2CCCC2)CC1 [Compound 381, 2-[2-(4-cyclopentylpiperazin-1-yl)-2-oxoethyl]-6-(2,3-dihydro-1,4-benzodioxin-6-yl)-1,2,3,4-tetrahydroisoquinoline]
O=C(CN1CCc2nc(-c3ccc(Cl)c(C(F)(F)F)c3)sc2C1)N1CCN(C2CCC2)CC1 [Compound 373, 2-[4-chloro-3-(trifluoromethyl)phenyl]-5-[2-(4-cyclobutylpiperazin-1-yl)-2-oxoethyl]-4,5,6,7-tetrahydro[1,3]thiazolo [5,4-c]pyridine]
CCc1ccc(-c2nc3c(s2)CN(CC(=O)N2CCN(C4CCC4)CC2)CC3)cc1 [Compound 311, 5-[2-(4-cyclobutylpiperazin-1-yl)-2-oxoethyl]-2-(4-ethylphenyl)-4,5,6,7-tetrahydro[1,3]thiazolo [5,4-c]pyridine]
N#Cc1ccc(-c2nc3c(s2)CN(CC(=O)N2CCN(C4CCC4)CC2)CC3)cc1 [Compound 368, 4-{5-[2-(4-cyclobutylpiperazin-1-yl)-2-oxoethyl]-4,5,6,7-tetrahydro[1,3]thiazolo [5,4-c]pyridin-2-yl}benzonitrile]
